Results on one molecule are retold here after patent publication US5229410A, “6-substituted-hexahydrobenz[cd]indoles” (Eli Lilly and Company, priority 1991, dated 1993).

The assay concerns the target T1, serotonin 1A receptor (Rattus norvegicus, UniProt P19327).
T1 construct: from tissue; host or cells: cerebral cortex of male Sprague-Dawley rats (synaptosomal membranes)
T1 sequence (P19327 1-422): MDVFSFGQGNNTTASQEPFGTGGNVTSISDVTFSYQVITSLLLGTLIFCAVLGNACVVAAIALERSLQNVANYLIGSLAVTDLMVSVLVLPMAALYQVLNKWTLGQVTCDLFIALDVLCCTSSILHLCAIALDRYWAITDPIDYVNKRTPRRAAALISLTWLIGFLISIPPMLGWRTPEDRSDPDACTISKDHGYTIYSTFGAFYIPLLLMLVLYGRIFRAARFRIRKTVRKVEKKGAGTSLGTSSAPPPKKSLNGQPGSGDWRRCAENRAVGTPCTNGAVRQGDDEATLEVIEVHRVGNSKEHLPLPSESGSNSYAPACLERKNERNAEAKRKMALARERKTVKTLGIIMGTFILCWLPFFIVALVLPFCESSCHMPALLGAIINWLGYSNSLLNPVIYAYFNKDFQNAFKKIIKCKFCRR
Description: serotonin 1A receptor binding (3H-8-OH-DPAT, rat cerebral cortex synaptosomal membranes). Details: species or system Male Sprague-Dawley rats. Conditions: 0.4 nM 3H-8-OH-DPAT, pH 7.4, 37° C., 10 min, read-out: IC50 (concentration necessary to inhibit the binding of 3H-8-OH-DPAT by 50%). Here is the method: The compound of Example 14 was evaluated for its ability to interact with serotonin 1A receptor using the following procedure which is generally set forth in Wong et al., J. Neural Transm., 71, 207-218 (1988). Male Sprague-Dawley rats (110-150 g) from Harlan Industries (Cumberland, Ill.) were fed a Purina Chow ad libitum for at least 3 days before being used in the studies. Rats were killed by decapitation. The brains were rapidly removed, and the cerebral cortices were dissected out at 4° C.
Brain tissues were homogenized in 0.32M sucrose. After centrifugation at 1000×g for 10 min and then at 17,000×g for 20 min, a crude synaptosomal fraction was sedimented. The pellet was suspended in 100 vol of 50 mM Tris-HCl, pH 7.4, incubated at 37° C. for 10 min, and centrifuged at 50,000×g for 10 min. The process was repeated and the final pellet was suspended in ice-chilled 50 mM Tris-HCl, pH 7.4. […]
Binding of (^3 H-8-OH-DPAT) was performed according to the previously described method [Wong et al., J. Neural Transm. […] Radioactivity was measured with a liquid scintillation spectrometer. […] Specific binding of ^3 H-8-OH-DPAT is defined as the difference of radioactivity bound in the absence and in the presence of 10 μM unlabeled 8-OH-DPAT. […]

SMILES strings stand for the structures.

In the case of `C#Cc1ccc2c3c1C[C@H](N(CCC)CCC)C[C@@H]3CN2` [Example 14, (2aS,4R)-6-ethynyl-4-(di-n-propylamino)-1,2,2a,3,4,5-hexahydrobenz[cd]indole], the IC50 was determined as 500 pM.
